For one series, the system named is RD cells. Nature of the series: Detection of cytotoxicity in RD cells (CellTiter-Glo). The format is cell-based. The settings on record: 4 days, CellTiter-Glo, median toxic dose. How it is done:
Detection of Cytotoxicity:
(1) The compound to be tested was diluted to a concentration of 400 μM with the cell maintenance solution, and 3-fold gradient dilution was carried out to obtain 10 concentrations in total.
(2) The diluted compound was added to a 96-well plate with white wall and transparent bottom, with 100 μL per well. An equal volume of the cell maintenance solution was added to the cell control group.
(3) RD cells were inoculated into the above 96-well plate at a concentration of 1*10^5/mL, with 100 μL per well, to reach a final volume of 200 μL per well, and the final concentration of drug was 0.5 times the pretreatment concentration.
(4) The RD cells were cultured at 37° C. for 4 days for testing.
(5) The Buffer of CellTiter-Glo® luminescent cell viability assay reagent was mixed with the substrate in the dark to prepare a working solution.
(6) The culture medium in the plate was discarded, the plate was dried by patting, 100 μL of the detection reagent was added to each well, and the 96-well plate was shaken on an orbital shaker for 4 minutes to induce cell lysis. After keeping in the dark and subjecting to signal stabilization for 15 minutes, the chemiluminescence unit was detected, and the plate reading program was performed according to the CellTiter-Glo preset program.
(§1) The formula for calculating the inhibition rates of drug at different dilution degrees was as follows: inhibition rate (%)=(average value of cell control group−value of experimental group)/(average value of cell control group−minimum value of experimental group)*100
(§2) The inhibition rate-concentration curve was fitted to S-curve by using origin8.0 software, and the IC50 value of the compound to be tested was calculated. The same method was used to calculate the TD50 value, and the selection index SI=TD50/IC50 was calculated according to the half maximal inhibitory concentration IC50 and the median toxic dose TD50.

In series [1] the test system is Enterovirus 71 (EV71) H strain. Description: In vitro anti-EV71 activity (antiviral activity in RD cells, CellTiter-Glo). In kind it is cell-based. Particulars: for IC50: Enterovirus A, 96 h, EV71 H strain, RD cells, 4 days, CellTiter-Glo, read-out: IC50. How it is done:
According to the mass and molecular weight of the compound to be tested, the compound to be tested was dissolved to 100 mM (mmol/L) with DMSO.
Detection of Antiviral Activity:
(1) First, the compound to be tested was diluted to 800 μM with cell maintenance solution (DMEM+2% FBS, Gibco, catalog numbers: 11995-065, 1600-044), and three-fold gradient dilution was performed to prepare 10 concentrations in total. The diluted compound was added to a 96-well plate with white wall and transparent bottom, 50 μl per well. To both the cell control group and the virus control group, an equal volume of the cell maintenance solution was added.
(2) EV71 virus (purchased from ATCC) was taken out from the −80° C. refrigerator and equilibrated to room temperature.
(3) The virus seed was diluted with a virus growth solution (DMEM+2% FBS, Gibco, catalog numbers: 11995-065, 1600-044) to 100TCID50, the diluted virus seed was added to the 96-well plate of (1), with […] per well. The same volume of the virus growth solution was added to the cell control group.
(4) RD cells (purchased from ATCC) were inoculated at a concentration of 1*10^5/mL into the 96-well plate of (1), with 100 μL per well, to reach a final volume of 200 μL per well. The final concentration of drug was 0.25 times the initial concentration.
(5) RD cells were cultured at 37° C. for 4 days for testing.
(6) The Buffer of CellTiter-Glo® luminescent cell viability assay reagent (Promega) was mixed with the substrate in the dark to prepare a working solution.
(7) The culture medium in the plate was discarded, the plate was dried by patting, 100 μL of the detection reagent was added to each well, and the 96-well plate was shaken on an orbital shaker for 4 minutes to induce cell lysis. After keeping in the dark and subjecting to signal stabilization for 15 minutes, the chemiluminescence unit was detected by using MD5 microplate reader (Molecular Devices), and the plate reading program was performed according to the CellTiter-Glo preset program.
The inhibition rate-concentration curve was fitted to S-curve by using origin8.0 software to calculate the IC50 value of the compound to be tested.
as §1, §2
On the technique in general: In ATP-based viability assays light output follows the ATP content of the culture.

In general, melting point refers to the temperature, or range, at which the solid turns liquid. What is called IC50 is the concentration needed to halve the response being measured. `CC(=O)/C=C/c1cnc2ccc(-c3ccc(C(C)C)cc3)cc2c1Nc1cccc(C(F)(F)F)c1` [HTL-3-39, (E)-6-(4-isopropyl)phenyl-4-[3-(trifluoromethyl)phenyl]aminoquinoline-3-butenone] came in with a melting point of 143 to 144 °C. This compound registered a TD50 in the series on RD cells of 1.75 ± 0.73 µM. Moreover, the IC50 in series [1] is more than 200 µM.

Compound `CCCc1ccc(-c2ccc3ncc(/C=C/C(C)=O)c(Nc4cccc(C(F)(F)F)c4)c3c2)cc1` [HTL-3-40, (E)-6-(4-propyl)phenyl-4-[3-(trifluoromethyl)phenyl]aminoquinoline-3-butenone] yielded a melting point of 166 to 169 °C. The TD50 with RD cells was determined as 0.83 ± 0.03 µM. For the same compound, the IC50 in series [1] was more than 200 µM.

`CC(=O)/C=C/c1cnc2ccc(-c3ccc(CC(C)C)cc3)cc2c1Nc1cccc(C(F)(F)F)c1` [HTL-3-41, (E)-6-(4-isobutyl)phenyl-4-[3-(trifluoromethyl)phenyl]aminoquinoline-3-butenone] displayed a melting point of 187 to 191 °C. Also, the TD50 in the series with RD cells came out at 0.99 ± 0.24 µM. In addition, the IC50 in series [1] is more than 200 µM.

The compound `CCCCc1ccc(-c2ccc3ncc(/C=C/C(C)=O)c(Nc4cccc(C(F)(F)F)c4)c3c2)cc1` [HTL-3-42, (E)-6-(4-butyl)phenyl-4-[3-(trifluoromethyl)phenyl]aminoquinoline-3-butenone] returned a melting point of 149 to 150 °C. Further, the TD50 in the series on RD cells is 0.96 ± 0.15 µM. In series [1], the IC50 is more than 200 µM.

On to `CC(=O)/C=C/c1cnc2ccc(-c3ccc(F)nc3)cc2c1Nc1cccc(C(F)(F)F)c1` [HTL-3-43, (E)-6-[3-(6-fluoro)pyridyl]-4-[3-(trifluoromethyl)phenyl]aminoquinoline-3-butenone], for which the melting point fell in the range of 133 to 134 °C. In addition, the TD50 with RD cells worked out at 2.23 ± 0.08 µM. Further, the half-maximal inhibitory concentration (IC50) in series [1] was more than 200 µM.

Take `CC(=O)/C=C/c1cnc2ccc(-c3ccc(C(N)=O)cc3)cc2c1Nc1cccc(C(F)(F)F)c1` [HTL-3-45, (E)-6-(4-carbamoyl)phenyl-4-[3-(trifluoromethyl)phenyl]aminoquinoline-3-butenone]: the melting point lay in the range of 211 to 214 °C. In the series on RD cells, the TD50 came out at 2.42 ± 0.06 µM. Besides, in series [1], the IC50 was more than 200 µM.

On to `CC(=O)/C=C/c1cnc2ccc(-c3cncc(C#N)c3)cc2c1Nc1cccc(C(F)(F)F)c1` [HTL-3-46, (E)-6-[3-(5-cyano)pyridyl]-4-[3-(trifluoromethyl)phenyl]aminoquinoline-3-butenone], for which the melting point is 227 to 229 °C. Further, in the series with RD cells, the TD50 came to 3.59 ± 2.46 µM. Moreover, in series [1], the IC50 was more than 200 µM.

Consider `Nc1ccc(-c2ccc3ncc4oc(=O)n(-c5cccc(C(F)(F)F)c5)c4c3c2)cn1` [HTL-4-32, 8-[3-(6-amino)pyridyl]-1-[3-(trifluoromethyl)phenyl]oxazolo[5,4-c]quinolin-2(1H)-one], for which the melting point was 146 to 147 °C. Besides, the TD50 with RD cells was determined as 14.5 ± 6.4 µM. Further, the “in vitro anti-EV71 activity, in words” value in series [1] (EV71, RD cells) is reported as “moderate inhibitory activity”. Also, in series [1], the IC50 was determined as 5.57 ± 1.53 µM.

`O=c1oc2cnc3ccc(-c4ccoc4)cc3c2n1-c1cccc(C(F)(F)F)c1` [HTL-5-25, 8-(3-furyl)-1-[3-(trifluoromethyl)phenyl]oxazolo[5,4-c]quinolin-2(1H)-one]: the melting point fell in the range of 276 to 277 °C. This compound came in with a TD50 in the series with RD cells of more than 200 µM. For the same compound, the IC50 in series [1] is more than 200 µM.

On to `O=c1oc2cnc3ccc(-c4cccs4)cc3c2n1-c1cccc(C(F)(F)F)c1` [HTL-5-26, 8-(2-thienyl)-1-[3-(trifluoromethyl)phenyl]oxazolo[5,4-c]quinolin-2(1H)-one], for which the melting point lay in the range of 272 to 274 °C. In addition, in the series with RD cells, the TD50 was more than 200 µM. Further, in series [1], the IC50 was more than 200 µM.

Regarding `CCOc1ccc(-c2ccc3ncc4oc(=O)n(-c5cccc(C(F)(F)F)c5)c4c3c2)cc1` [HTL-5-27, 8-(4-ethoxy)phenyl-1-[3-(trifluoromethyl)phenyl]oxazolo[5,4-c]quinolin-2(1H)-one], the melting point amounted to 254 °C. For the same compound, the TD50 in the series with RD cells is more than 200 µM. The IC50 in series [1] is more than 200 µM.

On to `O=c1oc2cnc3ccc(-c4ccc(F)nc4)cc3c2n1-c1cccc(C(F)(F)F)c1` [HTL-5-28, 8-[3-(6-fluoro)pyridyl]-1-[3-(trifluoromethyl)phenyl]oxazolo[5,4-c]quinolin-2(1H)-one], for which the melting point fell in the range of 262 to 263 °C. For the same compound, the TD50 in the series on RD cells was more than 200 µM. For the same compound, in series [1], the IC50 was more than 200 µM.

For `O=c1oc2cnc3ccc(-c4ccc(C(F)(F)F)cc4)cc3c2n1-c1cccc(C(F)(F)F)c1` [HTL-5-29, 8-(4-trifluoromethyl)phenyl-1-[3-(trifluoromethyl)phenyl]oxazolo[5,4-c]quinolin-2(1H)-one], the melting point lay in the range of 265 to 266 °C. Besides, the TD50 in the series with RD cells is more than 200 µM. The concentration for half-maximal inhibition (IC50) in series [1] is more than 200 µM.

The compound `COc1cncc(-c2ccc3ncc4oc(=O)n(-c5cccc(C(F)(F)F)c5)c4c3c2)c1` [HTL-5-30, 8-[3-(5-methoxy)pyridyl]-1-[3-(trifluoromethyl)phenyl]oxazolo[5,4-c]quinolin-2(1H)-one] had a melting point of 257 to 258 °C. In the series on RD cells, the TD50 was determined as 68.52 ± 0.42 µM. For the same compound, in series [1], the concentration for half-maximal inhibition (IC50) is more than 200 µM.

Consider `O=c1oc2cnc3ccc(-c4cnc5ccccc5c4)cc3c2n1-c1cccc(C(F)(F)F)c1` [HTL-5-32, 8-(3-quinolyl)-1-[3-(trifluoromethyl)phenyl]oxazolo[5,4-c]quinolin-2(1H)-one], for which the melting point lay within 242 to 244 °C. For the same compound, in the series on RD cells, the TD50 was determined as 68.88 ± 0.13 µM. The IC50 in series [1] is more than 200 µM.

Compound `O=c1oc2cnc3ccc(-c4ccc(Cl)cc4)cc3c2n1-c1cccc(C(F)(F)F)c1` [HTL-5-33, 8-(4-chloro)phenyl-1-[3-(trifluoromethyl)phenyl]oxazolo[5,4-c]quinolin-2(1H)-one] displayed a melting point of 283 to 286 °C. In addition, in the series on RD cells, the TD50 was more than 200 µM. The concentration for half-maximal inhibition (IC50) in series [1] was more than 200 µM.

The compound `CCCc1ccc(-c2ccc3ncc4oc(=O)n(-c5cccc(C(F)(F)F)c5)c4c3c2)cc1` [HTL-5-34, 8-(4-propyl)phenyl-1-[3-(trifluoromethyl)phenyl]oxazolo[5,4-c]quinolin-2(1H)-one] registered a melting point of 220 to 221 °C. For the same compound, the TD50 in the series with RD cells is more than 200 µM. The IC50 in series [1] was more than 200 µM.

Turning to `CC(C)c1ccc(-c2ccc3ncc4oc(=O)n(-c5cccc(C(F)(F)F)c5)c4c3c2)cc1` [HTL-5-35, 8-(4-isopropyl)phenyl-1-[3-(trifluoromethyl)phenyl]oxazolo[5,4-c]quinolin-2(1H)-one], the melting point is 219 to 220 °C. In addition, the TD50 in the series with RD cells worked out at 69.36 ± 0.28 µM. The IC50 in series [1] is more than 200 µM.

In the case of `N#Cc1cncc(-c2ccc3ncc4oc(=O)n(-c5cccc(C(F)(F)F)c5)c4c3c2)c1` [HTL-5-36, 8-[3-(5-cyano)pyridyl]-1-[3-(trifluoromethyl)phenyl]oxazolo[5,4-c]quinolin-2(1H)-one], the melting point fell in the range of 262 to 263 °C. Besides, the TD50 with RD cells turned out to be 13.41 ± 0.18 µM. Besides, in series [1], the IC50 was more than 200 µM.

`Cc1ccc(Nc2ccc3ncc4ccc(=O)n(-c5cccc(C(F)(F)F)c5)c4c3c2)cc1C` [HTL-6-17, 9-(3,4-dimethylphenyl)imino-2-oxo-1-[3-(trifluoromethyl)phenyl]-1,2-dihydrobenzo[h][1,6]naphthyridine] gave a melting point of 140 to 141 °C. This compound came in with a TD50 with RD cells of 6.81 ± 1.03 µM. For the same compound, the IC50 in series [1] was more than 200 µM.

These data come from patent publication US20220220106A1, “QUINOLINE COMPOUNDS AND PHARMACEUTICAL COMPOSITIONS AND USES THEREOF” (Academy of Military Medical Sciences, priority 2019, published 2022).
